From patent US20240239861A1, “GLUCAGON-RECEPTOR SELECTIVE POLYPEPTIDES AND METHODS OF USE THEREOF” (i2O Therapeutics, Inc., priority 2016, published 2024)
Read-outs that look alike come from different tables or passages of the source. *1 amine or outer side, *2 acyl side, *3 side chain or, on linkers, in order; H or OH if unused. Where a SMILES comes first, the peptide text is derived from it. Side-chain parts run from the residue outwards. [ ]: non-standard residue; d: D form. The star is where a group is joined. C18 diacid = O=C(O)CCCCCCCCCCCCCCCCC(=O)*; γGlu = O=C(O)[C@H](CCC(=O)[*:2])N[*:1]; Palmitoyl = CCCCCCCCCCCCCCCC(=O)*; AEEA = NCCOCCOCC(=O)O; Aib = CC(C)(N)C(=O)O

Assays:
human GLP-1R = human GLP-1R (Homo sapiens, UniProt P43220); assay: Peptide-receptor mediated cAMP accumulation (LANCE Ultra cAMP) in CHO-K1 cells transfected with human GLP-1R; type: cell-based
human GLP-1R, sequence (P43220 24-463): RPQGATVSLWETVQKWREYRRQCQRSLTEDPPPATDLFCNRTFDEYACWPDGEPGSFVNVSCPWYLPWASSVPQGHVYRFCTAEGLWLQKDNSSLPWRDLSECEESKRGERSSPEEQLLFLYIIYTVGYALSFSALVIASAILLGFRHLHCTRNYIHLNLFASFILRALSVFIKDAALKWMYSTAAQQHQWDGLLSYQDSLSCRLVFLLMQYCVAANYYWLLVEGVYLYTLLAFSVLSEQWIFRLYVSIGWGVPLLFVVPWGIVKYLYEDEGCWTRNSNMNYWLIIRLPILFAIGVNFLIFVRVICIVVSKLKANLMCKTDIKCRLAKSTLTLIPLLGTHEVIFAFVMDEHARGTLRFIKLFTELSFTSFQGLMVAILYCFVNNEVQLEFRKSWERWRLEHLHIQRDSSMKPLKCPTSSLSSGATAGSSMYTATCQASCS

human GCGR = human GCGR (Homo sapiens, UniProt P47871); assay: Peptide-receptor mediated cAMP accumulation (LANCE Ultra cAMP) in CHO-K1 cells transfected with human GCGR; type: cell-based
human GCGR, sequence (P47871 26-477): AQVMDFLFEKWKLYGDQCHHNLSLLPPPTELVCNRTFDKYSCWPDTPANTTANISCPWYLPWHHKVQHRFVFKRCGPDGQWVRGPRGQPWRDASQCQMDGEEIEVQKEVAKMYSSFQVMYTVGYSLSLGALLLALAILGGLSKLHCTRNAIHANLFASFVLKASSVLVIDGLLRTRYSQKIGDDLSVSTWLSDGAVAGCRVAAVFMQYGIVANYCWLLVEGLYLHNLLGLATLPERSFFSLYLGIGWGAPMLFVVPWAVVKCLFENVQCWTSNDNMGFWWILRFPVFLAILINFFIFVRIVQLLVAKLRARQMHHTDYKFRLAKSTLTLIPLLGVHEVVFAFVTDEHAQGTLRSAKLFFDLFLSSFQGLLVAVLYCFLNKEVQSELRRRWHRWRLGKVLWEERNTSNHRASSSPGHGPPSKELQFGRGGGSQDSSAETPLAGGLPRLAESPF

[1] = Table 7, GLP-1R, read-out: GLP-1R pEC50 (converted)
[2] = read-out: GluR pEC50 (converted)

Row | EC50 (human GLP-1R; hGLP1 pEC50 (cAMP mean (n = 3): 11 point curve starting at 1 nM, Table 3)) | EC50 (human GCGR; Table 3) | SMILES | EC50 (human GLP-1R; [1]) | EC50 (human GCGR; [2])
1 | > 1 nM | 0.0126 nM | CC(C)C[C@H](NC(=O)[C@H](Cc1ccc(O)cc1)NC(=O)[C@H](CCCCN)NC(=O)[C@H](CO)NC(=O)[C@H](Cc1ccc(O)cc1)NC(=O)[C@H](CC(=O)O)NC(=O)[C@H](CO)NC(=O)[C@@H](NC(=O)[C@H](Cc1ccccc1)NC(=O)[C@@H](NC(=O)CNC(=O)[C@H](CCC(N)=O)NC(=O)[C@H](CO)NC(=O)[C@@H](N)Cc1c[nH]c2ccccc12)[C@@H](C)O)[C@@H](C)O)C(=O)N[C@@H](CC(=O)O)C(=O)NC(C)(C)C(=O)N[C@@H](CCCCN)C(=O)N[C@@H](C)C(=O)N[C@@H](C)C(=O)N[C@@H](CCC(N)=O)C(=O)N[C@@H](CCC(=O)O)C(=O)N[C@@H](Cc1ccccc1)C(=O)N[C@H](C(=O)NC(C)(C)C(=O)N[C@@H](Cc1c[nH]c2ccccc12)C(=O)N[C@@H](CC(C)C)C(=O)N[C@@H](CCC(=O)O)C(=O)N[C@@H](CC(=O)O)C(=O)N[C@@H](CCC(=O)O)C(=O)N1CCC[C@H]1C(=O)N[C@@H](CO)C(=O)N[C@@H](CO)C(=O)NCC(=O)N[C@@H](CCCCN)C(=O)N1CCC[C@H]1C(=O)N1CCC[C@H]1C(=O)N1CCC[C@H]1C(=O)N[C@@H](CO)C(=O)O)C(C)C [Compound A93] (H-WSQGTFTSDYSKYLD[Aib]KAAQEFV[Aib]WLEDEPSSGKPPPS-OH; N-terminus assumed) |  | 
2 |  |  | CCCCCCCCCCCCCCCC(=O)N[C@@H](CCC(=O)NCCCC[C@H](NC(=O)[C@@H](NC(=O)[C@H](Cc1ccccc1)NC(=O)[C@H](CCC(=O)O)NC(=O)[C@H](CCC(N)=O)NC(=O)[C@H](C)NC(=O)[C@H](Cc1ccc(O)cc1)NC(=O)[C@H](CCCCN)NC(=O)C(C)(C)NC(=O)[C@H](CC(=O)O)NC(=O)[C@H](CC(C)C)NC(=O)[C@H](Cc1ccc(O)cc1)NC(=O)[C@H](CCCCN)NC(=O)[C@H](CO)NC(=O)[C@H](Cc1ccc(O)cc1)NC(=O)[C@H](CC(=O)O)NC(=O)[C@H](CO)NC(=O)[C@@H](NC(=O)[C@H](Cc1ccccc1)NC(=O)[C@@H](NC(=O)CNC(=O)[C@H](Cc1c[nH]cn1)NC(=O)[C@H](CO)NC(=O)[C@@H](N)Cc1ccc(O)cc1)[C@@H](C)O)[C@@H](C)O)C(C)C)C(=O)N[C@@H](Cc1c[nH]c2ccccc12)C(=O)N[C@@H](CC(C)C)C(=O)N[C@@H](CCC(=O)O)C(=O)N[C@@H](CC(=O)O)C(=O)N[C@@H](CCC(=O)O)C(=O)N1CCC[C@H]1C(=O)N[C@@H](CO)C(=O)N[C@@H](CO)C(=O)NCC(=O)N[C@@H](C)C(=O)N1CCC[C@H]1C(=O)N1CCC[C@H]1C(=O)N1CCC[C@H]1C(=O)N[C@@H](CO)C(=O)O)C(=O)O [Compound B2] | > 1000 nM | 0.00794 nM
3 |  |  | CCCCCCCCCCCCCCCC(=O)N[C@@H](CCC(=O)NCCCC[C@H](NC(=O)[C@H](CC(=O)O)NC(=O)[C@H](CO)NC(=O)[C@@H](NC(=O)[C@H](Cc1ccccc1)NC(=O)[C@@H](NC(=O)CNC(=O)[C@H](Cc1c[nH]cn1)NC(=O)[C@H](CO)NC(=O)[C@@H](N)Cc1ccc(O)cc1)[C@@H](C)O)[C@@H](C)O)C(=O)N[C@@H](CO)C(=O)N[C@@H](CCCCN)C(=O)N[C@@H](Cc1ccc(O)cc1)C(=O)N[C@@H](CC(C)C)C(=O)N[C@@H](CC(=O)O)C(=O)NC(C)(C)C(=O)N[C@@H](CCCCN)C(=O)N[C@@H](Cc1ccc(O)cc1)C(=O)N[C@@H](C)C(=O)N[C@@H](CCC(N)=O)C(=O)N[C@@H](CCC(=O)O)C(=O)N[C@@H](Cc1ccccc1)C(=O)N[C@H](C(=O)NC(C)(C)C(=O)N[C@@H](Cc1c[nH]c2ccccc12)C(=O)N[C@@H](CC(C)C)C(=O)N[C@@H](CCC(=O)O)C(=O)N[C@@H](CC(=O)O)C(=O)N[C@@H](CCC(=O)O)C(=O)N1CCC[C@H]1C(=O)N[C@@H](CO)C(=O)N[C@@H](CO)C(=O)NCC(=O)N[C@@H](C)C(=O)N1CCC[C@H]1C(=O)N1CCC[C@H]1C(=O)N1CCC[C@H]1C(=O)N[C@@H](CO)C(=O)O)C(C)C)C(=O)O [Compound B4] (H-YSHGTFTSDK([γGlu-Palmitoyl])SKYLD[Aib]KYAQEFV[Aib]WLEDEPSSGAPPPS-OH) | > 1000 nM | 0.794 nM
4 |  |  | CC(C)C[C@H](NC(=O)[C@H](Cc1ccc(O)cc1)NC(=O)[C@H](CCCCN)NC(=O)[C@H](CO)NC(=O)[C@H](Cc1ccc(O)cc1)NC(=O)[C@H](CC(=O)O)NC(=O)[C@H](CO)NC(=O)[C@@H](NC(=O)[C@H](Cc1ccccc1)NC(=O)[C@@H](NC(=O)CNC(=O)[C@H](Cc1c[nH]cn1)NC(=O)[C@H](CO)NC(=O)[C@@H](N)Cc1ccc(O)cc1)[C@@H](C)O)[C@@H](C)O)C(=O)N[C@@H](CC(=O)O)C(=O)NC(C)(C)C(=O)N[C@@H](CCCCN)C(=O)N[C@@H](Cc1ccc(O)cc1)C(=O)N[C@@H](C)C(=O)N[C@@H](CCC(N)=O)C(=O)N[C@@H](CCC(=O)O)C(=O)N[C@@H](Cc1ccccc1)C(=O)N[C@H](C(=O)NC(C)(C)C(=O)N[C@@H](Cc1c[nH]c2ccccc12)C(=O)N[C@@H](CC(C)C)C(=O)N[C@@H](CCC(=O)O)C(=O)N[C@@H](CC(=O)O)C(=O)N[C@@H](CCC(=O)O)C(=O)N1CCC[C@H]1C(=O)N[C@@H](CO)C(=O)N[C@@H](CO)C(=O)N[C@@H](CCCCNC(=O)COCCOCCNC(=O)COCCOCCNC(=O)CC[C@H](NC(=O)CCCCCCCCCCCCCCCCC(=O)O)C(=O)O)C(=O)N[C@@H](C)C(=O)N1CCC[C@H]1C(=O)N1CCC[C@H]1C(=O)N1CCC[C@H]1C(=O)N[C@@H](CO)C(=O)O)C(C)C [Compound B5] | > 1000 nM | 0.251 nM
5 |  |  | CC(C)C[C@H](NC(=O)[C@H](Cc1c[nH]c2ccccc12)NC(=O)[C@H](CCCCNC(=O)COCCOCCNC(=O)COCCOCCNC(=O)CC[C@H](NC(=O)CCCCCCCCCCCCCCCCC(=O)O)C(=O)O)NC(=O)[C@@H](NC(=O)[C@H](Cc1ccccc1)NC(=O)[C@H](CCC(=O)O)NC(=O)[C@H](CCC(N)=O)NC(=O)[C@H](C)NC(=O)[C@H](Cc1ccc(O)cc1)NC(=O)[C@H](CCCCN)NC(=O)C(C)(C)NC(=O)[C@H](CC(=O)O)NC(=O)[C@H](CC(C)C)NC(=O)[C@H](Cc1ccc(O)cc1)NC(=O)[C@H](CCCCN)NC(=O)[C@H](CO)NC(=O)[C@H](Cc1ccc(O)cc1)NC(=O)[C@H](CC(=O)O)NC(=O)[C@H](CO)NC(=O)[C@@H](NC(=O)[C@H](Cc1ccccc1)NC(=O)[C@@H](NC(=O)CNC(=O)[C@H](Cc1c[nH]cn1)NC(=O)[C@H](CO)NC(=O)[C@@H](N)Cc1ccc(O)cc1)[C@@H](C)O)[C@@H](C)O)C(C)C)C(=O)N[C@@H](CCC(=O)O)C(=O)N[C@@H](CC(=O)O)C(=O)N[C@@H](CCC(=O)O)C(=O)N1CCC[C@H]1C(=O)N[C@@H](CO)C(=O)N[C@@H](CO)C(=O)NCC(=O)N[C@@H](C)C(=O)N1CCC[C@H]1C(=O)N1CCC[C@H]1C(=O)N1CCC[C@H]1C(=O)N[C@@H](CO)C(=O)O [Compound B6] | > 1000 nM | 0.0794 nM
6 |  |  | CC(C)C[C@H](NC(=O)[C@H](Cc1ccc(O)cc1)NC(=O)[C@H](CCCCN)NC(=O)[C@H](CO)NC(=O)[C@H](Cc1ccc(O)cc1)NC(=O)[C@H](CC(=O)O)NC(=O)[C@H](CO)NC(=O)[C@@H](NC(=O)[C@H](Cc1ccccc1)NC(=O)[C@@H](NC(=O)CNC(=O)[C@H](Cc1c[nH]cn1)NC(=O)[C@H](CO)NC(=O)[C@@H](N)Cc1ccc(O)cc1)[C@@H](C)O)[C@@H](C)O)C(=O)N[C@@H](CC(=O)O)C(=O)N[C@@H](CCCCNC(=O)COCCOCCNC(=O)COCCOCCNC(=O)CC[C@H](NC(=O)CCCCCCCCCCCCCCCCC(=O)O)C(=O)O)C(=O)N[C@@H](CCCCN)C(=O)N[C@@H](Cc1ccc(O)cc1)C(=O)N[C@@H](C)C(=O)N[C@@H](CCC(N)=O)C(=O)N[C@@H](CCC(=O)O)C(=O)N[C@@H](Cc1ccccc1)C(=O)N[C@H](C(=O)NC(C)(C)C(=O)N[C@@H](Cc1c[nH]c2ccccc12)C(=O)N[C@@H](CC(C)C)C(=O)N[C@@H](CCC(=O)O)C(=O)N[C@@H](CC(=O)O)C(=O)N[C@@H](CCC(=O)O)C(=O)N1CCC[C@H]1C(=O)N[C@@H](CO)C(=O)N[C@@H](CO)C(=O)NCC(=O)N[C@@H](C)C(=O)N1CCC[C@H]1C(=O)N1CCC[C@H]1C(=O)N1CCC[C@H]1C(=O)N[C@@H](CO)C(=O)O)C(C)C [Compound B7] | > 1000 nM | 2.51 nM
7 |  |  | CC(C)C[C@H](NC(=O)[C@H](Cc1ccc(O)cc1)NC(=O)[C@H](CCCCN)NC(=O)[C@H](CO)NC(=O)[C@H](CCCCNC(=O)COCCOCCNC(=O)COCCOCCNC(=O)CC[C@H](NC(=O)CCCCCCCCCCCCCCCCC(=O)O)C(=O)O)NC(=O)[C@H](CC(=O)O)NC(=O)[C@H](CO)NC(=O)[C@@H](NC(=O)[C@H](Cc1ccccc1)NC(=O)[C@@H](NC(=O)CNC(=O)[C@H](Cc1c[nH]cn1)NC(=O)[C@H](CO)NC(=O)[C@@H](N)Cc1ccc(O)cc1)[C@@H](C)O)[C@@H](C)O)C(=O)N[C@@H](CC(=O)O)C(=O)NC(C)(C)C(=O)N[C@@H](CCCCN)C(=O)N[C@@H](Cc1ccc(O)cc1)C(=O)N[C@@H](C)C(=O)N[C@@H](CCC(N)=O)C(=O)N[C@@H](CCC(=O)O)C(=O)N[C@@H](Cc1ccccc1)C(=O)N[C@H](C(=O)NC(C)(C)C(=O)N[C@@H](Cc1c[nH]c2ccccc12)C(=O)N[C@@H](CC(C)C)C(=O)N[C@@H](CCC(=O)O)C(=O)N[C@@H](CC(=O)O)C(=O)N[C@@H](CCC(=O)O)C(=O)N1CCC[C@H]1C(=O)N[C@@H](CO)C(=O)N[C@@H](CO)C(=O)NCC(=O)N[C@@H](C)C(=O)N1CCC[C@H]1C(=O)N1CCC[C@H]1C(=O)N1CCC[C@H]1C(=O)N[C@@H](CO)C(=O)O)C(C)C [Compound B8] (H-YSHGTFTSDK([AEEA-AEEA-γGlu-C18 diacid])SKYLD[Aib]KYAQEFV[Aib]WLEDEPSSGAPPPS-OH) | > 1000 nM | 0.0251 nM
